The subject of data set [1] is Proteus mirabilis. The data set is described as follows: Antimicrobial activity against Proteus mirabilis IFM OM-9. The format is functional.
The test system of data set [2] is Staphylococcus aureus. The data set is described as follows: Antimicrobial activity against Staphylococcus aureus Smith. Type of data set: functional.
Data set [3] relates to Mycolicibacterium smegmatis. The data set is described as follows: Antimicrobial activity against rifamycin-resistant Mycobacterium smegmatis ATCC 607. Type of data set: functional.
In data set [4] the test system is Escherichia coli. The data set is described as follows: Antimicrobial activity against Escherichia coli NIHJ. Type of data set: functional.
The test system of data set [5] is Bacillus subtilis. The data set is described as follows: Antimicrobial activity against Bacillus subtilis NRRL B-558. The format is functional.
Data set [6] deals with Bacillus cereus. The data set is described as follows: Antimicrobial activity against Bacillus cereus ATCC 10702. The format is functional.
The subject of data set [7] is Salmonella enterica subsp. enterica. As to the kind of experiment: Antimicrobial activity against Salmonella enteritidis 1891. The format is functional, Salmonella enterica subsp. enterica serovar Enteritidis.
Data set [8] deals with Staphylococcus aureus. As to the kind of experiment: Antimicrobial activity against methicillin-resistant Staphylococcus aureus isolate 17. Type of data set: functional.
For data set [9], the system named is Micrococcus luteus. The data set is described as follows: Antimicrobial activity against Micrococcus luteus FDA16. Type of data set: functional.
The subject of data set [10] is Micrococcus luteus. As to the kind of experiment: Antimicrobial activity against Micrococcus luteus PCI 1001. Type of data set: functional.
Data set [11] concerns Mycolicibacterium vaccae. The data set is described as follows: Antimicrobial activity against Mycobacterium vaccae ATCC 15483. The format is functional.
Data set [12] has as its system Escherichia coli. As to the kind of experiment: Antimicrobial activity against Escherichia coli K-12. Type of data set: functional.
In data set [13] the test system is Klebsiella pneumoniae. The data set is described as follows: Antimicrobial activity against Klebsiella pneumoniae PCI602. The format is functional.
Data set [14] has as its system Escherichia coli. The data set is described as follows: Antimicrobial activity against Escherichia coli BEM11. The format is functional.
For data set [15], the system named is Shigella flexneri. The data set is described as follows: Antimicrobial activity against Shigella flexneri 4bJS11811. Type of data set: functional.
Data set [16] has as its system Shigella dysenteriae. The data set is described as follows: Antimicrobial activity against Shigella dysenteriae JS1 1910. Type of data set: functional.
Data set [17] has as its system Mycolicibacterium smegmatis. As to the kind of experiment: Antimicrobial activity against streptomycin-resistant Mycobacterium smegmatis ATCC 607. Type of data set: functional.
The subject of data set [18] is Mycolicibacterium smegmatis. As to the kind of experiment: Antimicrobial activity against Mycobacterium smegmatis ATCC 607. The format is functional.
Data set [19] concerns Bacillus anthracis. The data set is described as follows: Antimicrobial activity against Bacillus anthracis. Type of data set: functional.
For data set [20], the system named is Bacillus subtilis. As to the kind of experiment: Antimicrobial activity against Bacillus subtilis PCI 219. Type of data set: functional.
Data set [21] relates to Proteus vulgaris. As to the kind of experiment: Antimicrobial activity against Proteus vulgaris OX19. Type of data set: functional.
Data set [22] relates to Escherichia coli. As to the kind of experiment: Antimicrobial activity against Escherichia coli BE1186. Type of data set: functional.
Data set [23] concerns Salmonella enterica subsp. enterica. As to the kind of experiment: Antimicrobial activity against Salmonella typhi T-63. Type of data set: functional, Salmonella enterica subsp. enterica serovar Typhi.
The test system is the same in data set [24]. The data set is described as follows: Antimicrobial activity against Salmonella typhi JS11746. The format is functional, Salmonella enterica subsp. enterica serovar Typhi.
Data set [25] concerns Providencia rettgeri. As to the kind of experiment: Antimicrobial activity against Providencia rettgeri GN311. Type of data set: functional.
Data set [26] concerns Mycolicibacterium smegmatis. The data set is described as follows: Antimicrobial activity against capreomycin-resistant Mycobacterium smegmatis ATCC 607. Type of data set: functional.
The subject of data set [27] is Pseudomonas aeruginosa. As to the kind of experiment: Antimicrobial activity against Pseudomonas aeruginosa GN315. Type of data set: functional.
The test system of data set [28] is Mycolicibacterium smegmatis. As to the kind of experiment: Antimicrobial activity against paromomycin-resistant Mycobacterium smegmatis ATCC 607. The format is functional.
For data set [29], the system named is Staphylococcus aureus. As to the kind of experiment: Antimicrobial activity against Staphylococcus aureus FDA209P. Type of data set: functional.
Data set [30] concerns Escherichia coli. The data set is described as follows: Antimicrobial activity against Escherichia coli BE1126. The format is functional.
For data set [31], the system named is Pseudomonas aeruginosa. The data set is described as follows: Antimicrobial activity against Pseudomonas aeruginosa A3. Type of data set: functional.
Data set [32] has as its system Escherichia coli. As to the kind of experiment: Antimicrobial activity against Escherichia coli K-12 MLI629. Type of data set: functional.
The test system of data set [33] is Staphylococcus aureus. As to the kind of experiment: Antimicrobial activity against methicillin-resistant Staphylococcus aureus isolate 5. The format is functional.
In data set [34] the test system is Corynebacterium bovis. The data set is described as follows: Antimicrobial activity against Corynebacterium bovis 1810. The format is functional.
For data set [35], the system named is Micrococcus luteus. The data set is described as follows: Antimicrobial activity against Micrococcus luteus IFO 3333. The format is functional.
The subject of data set [36] is Providencia rettgeri. The data set is described as follows: Antimicrobial activity against Providencia rettgeri GN466. Type of data set: functional.
The subject of data set [37] is Staphylococcus aureus. The data set is described as follows: Antimicrobial activity against Staphylococcus aureus MS9610. The format is functional.
For data set [38], the system named is Mycolicibacterium smegmatis. As to the kind of experiment: Antimicrobial activity against streptothricin-resistant Mycobacterium smegmatis ATCC 607. Type of data set: functional.
A short description of data set [39]: Toxicity in rat bearing M1 cells assessed as mortality at 40% LD50 per day. The format is organism-based. To be noted: m1, 40 % LD50 per day, read-out: Activity.
Data set [40] has as its system LoVo. The data set is described as follows: Cytotoxicity against human LoVo cells. Type of data set: functional, cell-based.
Data set [41] can be described thus: Inhibition of sunflower S-adenosyl-L-methionine-C-24 methyltransferase. Also noted: species or system Helianthus annuus.
For data set [42], the system named is KB. The data set is described as follows: Cytotoxicity against human KB cells. Type of data set: functional, cell-based.

The values that follow come from ChEMBL document CHEMBL1154010, “Aziridine alkaloids as potential therapeutic agents” (Eur J Med Chem, 2009).

pIC50, pKi: −log10 of the molar value. Values after ≈ are worked out from the molar mass of the structure shown.

One may read the MIC as the lowest concentration that inhibits growth of the organism. On to `COc1c(O)cc2c(OC)c3c(c(O)c2c1O)C(=O)CC1CC(O)(C2CN2)CC(=O)C31O` (configuration not stated) [AZICEMICIN B], for which the MIC in data set [1] worked out at 100 µg/mL (≈ 225 µM); in data set [2], 100 µg/mL (≈ 225 µM); in data set [3], 25 µg/mL (≈ 56.1 µM); in data set [4] it was 25 µg/mL (≈ 56.1 µM); in data set [5], 100 µg/mL (≈ 225 µM); in data set [6], 100 µg/mL (≈ 225 µM). Moreover, the MIC in data set [7] was more than 50 µg/mL; in data set [8] it was 100 µg/mL (≈ 225 µM); in [9] it was 6.25 µg/mL (≈ 14 µM); in [10], 1.56 µg/mL (≈ 3.5 µM); in [11] it was 6.25 µg/mL (≈ 14 µM); in data set [12], 100 µg/mL (≈ 225 µM). In addition, the minimum inhibitory concentration (MIC) in [13] came to 100 µg/mL (≈ 225 µM); in data set [14] it was 100 µg/mL (≈ 225 µM); in [15], 100 µg/mL (≈ 225 µM); in data set [16], 25 µg/mL (≈ 56.1 µM); in data set [17], 6.25 µg/mL (≈ 14 µM); in data set [18], 12.5 µg/mL (≈ 28.1 µM). In addition, the MIC in [19], in data set [20], in data set [21], in [22], in data set [23] and in data set [24] was 100 µg/mL (≈ 225 µM) throughout. Also, the MIC was 100 µg/mL (≈ 225 µM) in [25]; 12.5 µg/mL (≈ 28.1 µM) in data set [26]; 100 µg/mL (≈ 225 µM) in data set [27]; 6.25 µg/mL (≈ 14 µM) in data set [28]; 100 µg/mL (≈ 225 µM) in data set [29]; 100 µg/mL (≈ 225 µM) in data set [30]. For the same molecule, the MIC in data set [31] is more than 50 µg/mL; in data set [32], 100 µg/mL (≈ 225 µM); in [33], 100 µg/mL (≈ 225 µM); in [34], 6.25 µg/mL (≈ 14 µM); in data set [35], 1.56 µg/mL (≈ 3.5 µM); in [36] it was 100 µg/mL (≈ 225 µM). The minimum inhibitory concentration (MIC) stood at 100 µg/mL (≈ 225 µM) in data set [37] and 25 µg/mL (≈ 56.1 µM) in data set [38].
`CC1SCCN1P(=O)(N1CC1)N1CC1` (configuration not stated) [MARCOPHAN]: the mortality in data set [39] stood at 25%.
As a reminder, the IC50 is the concentration that gives 50% inhibition. Lower therefore signals greater potency in that assay. With `CC(=O)[C@]1(O)Cc2c(O)c3c(c(O)c2[C@@H](OC2C[C@H](N4CC4)[C@H](OS(C)(=O)=O)[C@H](C)O2)C1)C(=O)c1ccccc1C3=O` (some centres not stated), the IC50 in data set [40] amounted to 0.0027 µg/mL (≈ 0.00449 µM).
For orientation: pKi means the negative decadic logarithm of the Ki, by convention in mol/L. Take `C[C@H](CCC1NC1(C)C)[C@H]1CC[C@@]2(C)C3=C(CC[C@]12C)[C@@]1(C)CC[C@H](O)C(C)(C)[C@@H]1CC3` (mixture of isomers): the pKi in data set [41] is 8.52.
The pIC50 is the negative decadic logarithm of the IC50, by convention in mol/L. Low readings indicate a high IC50, high ones a low IC50. Take `C/C(=C\c1csc(C)n1)[C@@H]1C[C@H]2[C@@H](CCC[C@H](C)[C@H](O)[C@@H](C)C(=O)C(C)(C)[C@@H](O)CC(=O)O1)N2CCO` (some centres not stated): the pIC50 in [42] is 8.37.
